{
  "source": "paper PMC6994103",
  "about": "(PLoS Neglected Tropical Diseases, 2020)",
  "key": {"[1]": {"system": "proline transporter TcAAAP069", "assay": "Proline transport assay in wild type (TcWT) epimastigotes", "format": "cell-based, Trypanosoma cruzi", "settings": "for proline transport inhibition at 25 μM and 100 μM: TcWT epimastigotes, preliminary", "protocol": "(§1) Aliquots of epimastigote cultures (10^7 parasites) were centrifuged at 8,000 xg for 30 s, and washed once with PBS. […] Following incubation at 28°C, reaction was stopped by adding 1 mL of ice-cold PBS. Cells were centrifuged as indicated above, and washed twice with ice-cold PBS. Cell pellets were resuspended in 0.2 mL of water and counted for radioactivity in UltimaGold XR liquid scintillation cocktail (Packard Instrument Co., Meridien CT, USA). Cell viability was assessed by direct microscopic examination and viability assays by using “Cell Titer 96 Aqueous One Solution Cell Proliferation Assay (MTS)” (Promega, Madison, WI, USA) according to the manufacturer instructions. […] Non-specific uptake and carry over were assayed without incubation (T0), or incubated at 4°C. […] As a control, regular PBS buffer was used."}, "[2]": {"system": "VERO cells", "assay": "Toxicity assay in VERO cells (gentian violet staining)", "format": "cell-based, African green monkey", "settings": "IC50 in VERO cells / IC50 in trypomastigotes (Y strain)", "protocol": "VERO cells (African green monkey Kidney, ATCC CCL-81) were cultured in MEM medium supplemented with 10% heat inactivated FCS, 0.15% (w/v) NaHCO3, 100 U/mL penicillin and 100 U/mL streptomycin at 37°C in 5% CO2.\nThe toxicity of the compounds was determined in VERO cells by the gentian violet staining assay. Briefly, the cells (1 x10^4 cells/well) were incubated in 96-well plates with the indicated compound or dimethyl sulfoxide (DMSO) as negative control and maintained at 37° C for 24 h. Then the cells were fixed for 15 min, and stained with 0.5% gentian violet. The absorbance was measured at 570 nm. The selectivity index (SI) was calculated for each CV analogue as the ratio between the IC50 obtained in mammalian cells and the IC50 in trypomastigotes. For the combined treatment, the results were presented as percentage of untreated cells."}, "[3]": {"system": "proline transporter TcAAAP069", "assay": "Proline transport assay in TcAAAP069 overexpressing (Tc069) epimastigotes", "format": "cell-based, Trypanosoma cruzi", "settings": "Tc069 vs TcWT", "protocol": "as §1"}, "[4]": {"system": "T. cruzi epimastigotes Dm28c strain", "assay": "Trypanocidal activity in epimastigotes, Dm28c strain", "format": "cell-based, Trypanosoma cruzi", "settings": "Dm28c vs Y", "protocol": "(§2) VERO cells (5 x10^4 per well) were infected with trypomastigotes (2.5 ×10^5 per well) for 4 h. After this period, the infected cells were washed twice with phosphate-buffered saline (PBS), the MEM medium was replaced, and the cells were kept in culture at 37°C, 5% CO2. In order to obtain intracellular amastigotes, the cells were lysed 4 days after infection using a cell scraper, collected, washed twice with PBS (or MEM) and counted using a hemocytometer. Trypomastigotes were obtained from infected VERO cells as previously described.\n(§3) Epimastigotes of T. cruzi were cultured as described above, in 24-wells plate at a start density of 0.5 x10^7 cells/mL in BHT medium. Parasites´ growth was evaluated at different concentrations of BZL, CV and CV structural analogues, and parasite proliferation was determined after 48 h. Trypanocidal activity in trypomastigotes and amastigotes was performed using 1 x10^6 cells/mL in 96-well plates and incubating at 37°C for 24 h in the presence of the corresponding drug. Growth was determined by counting in a Neubauer chamber and viability assays by using “Cell Titer 96 Aqueous One Solution Cell Proliferation Assay (MTS)” (Promega, Madison, WI, USA) according to the manufacturer’s instructions. Amastigotes were fixed with methanol, stained and mounted with Vectashield with DAPI (Vector Laboratories, Burlingame, CA, USA), and then the non-lysed cells were counted by using fluorescence microscopy."}, "[5]": {"system": "T. cruzi Tc069 epimastigotes Y strain", "assay": "Trypanocidal activity in TcAAAP069 overexpressing (Tc069) epimastigotes", "format": "cell-based, Trypanosoma cruzi", "settings": "Tc069 vs TcWT", "protocol": "as §3"}, "[6]": {"system": "T. cruzi epimastigotes CL Brener strain", "assay": "Trypanocidal activity in epimastigotes, CL Brener strain", "format": "cell-based, Trypanosoma cruzi", "settings": "CL Brener vs Y", "protocol": "as §2\nEpimastigotes of T. cruzi were cultured as described above, in 24-wells plate at a start density of 0.5 x10^7 cells/mL in BHT medium. Parasites´ growth was evaluated at different concentrations of BZL, CV and CV structural analogues, and parasite proliferation was determined after 48 h. […] Growth was determined by counting in a Neubauer chamber and viability assays by using “Cell Titer 96 Aqueous One Solution Cell Proliferation Assay (MTS)” (Promega, Madison, WI, USA) according to the manufacturer’s instructions. Amastigotes were fixed with methanol, stained and mounted with Vectashield with DAPI (Vector Laboratories, Burlingame, CA, USA), and then the non-lysed cells were counted by using fluorescence microscopy."}},
  "data": [
    {"molecule": "Nc1ccc(S(=O)(=O)c2ccc(N)cc2)cc1", "note": "[Dapsone]", "values": [
      {"measurement": "proline transport inhibition at 25 μM and 100 μM", "setting": "[1]", "result": "did not inhibit the proline transport in any concentration assayed"}
    ]},
    {"molecule": "CC(C)/N=c1\\cc2n(-c3ccc(Cl)cc3)c3ccccc3nc-2cc1Nc1ccc(Cl)cc1", "note": "[Clofazimine]", "values": [
      {"measurement": "Selectivity Index", "setting": "[2]", "result": 36.1}
    ]},
    {"molecule": "Cc1cc2c(s1)Nc1ccccc1N=C2N1CCN(C)CC1", "note": "[Olanzapine]", "values": [
      {"measurement": "proline transport inhibition at 25 μM and 100 μM", "setting": "[1]", "result": "only inhibited proline transport at 100 μM"},
      {"measurement": "concentration producing death of parasites in the lapse time of the transport assay", "setting": "[1]; epimastigotes", "result": "over 300 μM"}
    ]},
    {"molecule": "CN(C)c1ccc(C(=C2C=CC(=[N+](C)C)C=C2)c2ccc(N(C)C)cc2)cc1", "note": "[Crystal Violet]", "values": [
      {"measurement": "fold increase of proline transport IC50 in Tc069 vs control parasites", "setting": "[3]", "result": 2.5, "unit": "fold"},
      {"measurement": "fold lower IC50 in Dm28c than in Y epimastigotes", "setting": "[4]", "result": 31.8, "unit": "fold"},
      {"measurement": "fold reduction of trypanocidal IC50 in Tc069 vs wild type", "setting": "[5]", "result": 47, "unit": "fold"},
      {"measurement": "effect on pH dependency of proline transport", "setting": "[1]; CV 10 μM, citrate buffer pH 5.0-6.5", "result": "did not alter the pH dependency"},
      {"measurement": "proline transport inhibition in the absence of Na+ or K+ cations", "setting": "[1]; CV 10 μM, modified PBS vs regular PBS", "result": "No differences were observed"},
      {"measurement": "mechanism of inhibition of proline transport", "setting": "[1]; TcWT, listed as CV", "result": "reversible competitive mechanism of inhibition"},
      {"measurement": "fold lower IC50 in CL Brener than in Y epimastigotes", "setting": "[6]", "result": 4.0, "unit": "fold"}
    ]}
  ]
}
